Legend:
[1] = system: VEGF-induced and bFGF-induced corneal neovascularization; conditions: further studies, reported; cited from earlier work
[2] = system: human vascular endothelial cells (HUVECS); assay: Endothelial cell proliferation, 3H-thymidine uptake assay; assay type: cell-based; conditions: for % Inhibition vs 10% Serum / Average ([3H]-thymidine incorporation, radioactivity) / Well 1 ([3H]-thymidine incorporation, radioactivity) / Well 2 ([3H]-thymidine incorporation, radioactivity) / Well 3 ([3H]-thymidine incorporation, radioactivity) / Well 4 ([3H]-thymidine incorporation, radioactivity): Table 1A
Method: After 20 h, [^3H]-thymidine (2 μCi/ml) was added to the culture medium for 2-4 h. The [^3H]-thymidine incorporation was stopped with ice-cold PBS (3 washes) and the cells were incubated with cold 10% trichloroacetic acid (TCA) for 10 min at 4C. The cells were further incubated with TCA at room temperature for 10 min and washed three times with PBS. The cells were solubilized overnight with 1N NaOH and neutralized with an equivalent amount of 1N HCl before radioactivity was determined. […]

[3] = system: vascular endothelial growth factor (VEGF) and basic fibroblast growth factor (bFGF) induced angiogenesis; conditions: has been reported; cited from earlier work
endothelial cells = conditions: reported; cited from earlier work

For `O=C1CC[C@H](N2C(=O)c3ccccc3C2=O)C(=O)N1` [S(−)-enantiomer of thalidomide], the “anti-angiogenic activity in VEGF-induced and bFGF-induced corneal neovascularization” value [1] is listed as “potent anti-angiogenic activity”.
For `O=C1CCC(N2C(=O)c3ccccc3C2=O)C(=O)N1` (stereo not shown) [STD, thalidomide], the “effect on endothelial cell proliferation (in words)” value ([2]; 3H-thymidine uptake) was “significant inhibition of endothelial cell proliferation”, the “% Inhibition vs 10% Serum” value ([2]; 38.5 uM) was −61.49% and the “Average ([3H]-thymidine incorporation, radioactivity)” value (“Average” below) ([2]; 38.5 uM) was 2700.214. The “Well 1 ([3H]-thymidine incorporation, radioactivity)” value ([2]; 38.5 uM) was 1835.938, the “Well 2 ([3H]-thymidine incorporation, radioactivity)” value ([2]; 38.5 uM) was 2018.496 and the “Well 3 ([3H]-thymidine incorporation, radioactivity)” value ([2]; 38.5 uM) was 4751.43. For the same molecule, the “Well 4 ([3H]-thymidine incorporation, radioactivity)” value ([2]; 38.5 uM) was 2194.99, the “% Inhibition vs 10% Serum” value ([2]; 96 uM) was 30.39% and the “Average” value ([2]; 96 uM) was 1163.906. The “Well 1 ([3H]-thymidine incorporation, radioactivity)” value ([2]; 96 uM) was 1736.688, the “Well 2 ([3H]-thymidine incorporation, radioactivity)” value ([2]; 96 uM) was 850.094 and the “Well 3 ([3H]-thymidine incorporation, radioactivity)” value ([2]; 96 uM) was 1083.54. For the same molecule, the “Well 4 ([3H]-thymidine incorporation, radioactivity)” value ([2]; 96 uM) was 985.3011, the “% Inhibition vs 10% Serum” value ([2]; 192.5 uM) was 78.48% and the “Average” value ([2]; 192.5 uM) was 359.8271. For the same molecule, the “Well 1 ([3H]-thymidine incorporation, radioactivity)” value ([2]; 192.5 uM) was 255.2577, the “Well 2 ([3H]-thymidine incorporation, radioactivity)” value ([2]; 192.5 uM) was 435.4396 and the “Well 3 ([3H]-thymidine incorporation, radioactivity)” value ([2]; 192.5 uM) was 336.7686. The “Well 4 ([3H]-thymidine incorporation, radioactivity)” value ([2]; 192.5 uM) was 411.8425, the “% Inhibition vs 10% Serum” value ([2]; 289 uM) was 85.34% and the “Average” value ([2]; 289 uM) was 245.0808. For the same molecule, the “Well 1 ([3H]-thymidine incorporation, radioactivity)” value ([2]; 289 uM) was 198.4536, the “Well 2 ([3H]-thymidine incorporation, radioactivity)” value ([2]; 289 uM) was 273.8429 and the “Well 3 ([3H]-thymidine incorporation, radioactivity)” value ([2]; 289 uM) was 272.3789. For the same molecule, the “Well 4 ([3H]-thymidine incorporation, radioactivity)” value ([2]; 289 uM) was 235.6478, the “% Inhibition vs 10% Serum” value ([2]; 385 uM) was 86.86% and the “Average” value ([2]; 385 uM) was 219.7341. For the same molecule, the “Well 1 ([3H]-thymidine incorporation, radioactivity)” value ([2]; 385 uM) was 141.5772, the “Well 2 ([3H]-thymidine incorporation, radioactivity)” value ([2]; 385 uM) was 255.4687 and the “Well 3 ([3H]-thymidine incorporation, radioactivity)” value ([2]; 385 uM) was 210.2551. The “Well 4 ([3H]-thymidine incorporation, radioactivity)” value ([2]; 385 uM) was 271.6354, the “anti-angiogenic efficacy against VEGF and bFGF induced angiogenesis” value [3] was “significant anti-angiogenic efficacy” and the “inhibition of the in vitro proliferation of endothelial cells” value (endothelial cells) was “ability to inhibit”.
